Laboratory results taken from patent US11718628B2, “SREBP inhibitors comprising a 6-membered central ring” (Capulus Therapeutics, LLC, priority 2018, dated 2023).
Like-named read-outs stand apart in the source and are kept apart here.

Legend:
[1] = Log D by octanol/aqueous buffer partitioning; assay type: physicochemical; settings: pH 7.4, 1-octanol/buffer
Protocol: The Log D of selected compounds was evaluated by octanol/aqueous buffer partitioning. 500 μL of organic phase (1-octanol) was added to each well of a 2 mL deep well plate, followed by 500 μL of buffer and 15 μL of test compound in DMSO (0.15 mM). The plate was vortexed for 10 seconds and incubated at room temperature for 1 hr on a plate shaker at 200 rpm. After incubation, the samples were allowed to equilibrate for 20 min and then centrifuged at 4000 rpm for 30 min for complete phase separation. The distribution of test compound in buffer and octanol phase was analyzed by HPLC-UV. Log D=Log (Area of Octanol/Area of Buffer).

[2] = In vivo pharmacokinetic properties in rats (IV and PO); design: species or system male Sprague Dawley rats
Protocol: (§1) The in vivo pharmacokinetic properties of compounds by both intravenous and oral administration were evaluated in male Sprague Dawley rats or C57BL/6J mice.
(§2) Animals were housed in cages with clean bedding. Certified rodent diet was provided. Water was available ad libitum. Environmental controls for the animal room were set to maintain a temperature of 22° C. to 25° C., humidity of 40-70% RH, and a 12-hour light/12-hour dark cycle. Normal healthy animals certified by the attending veterinarian were selected and acclimatized for minimum three days prior to initiation of study.
Surgical Procedure for Jugular Vein Cannulation of Rats: Rats were anaesthetized with a single dose of ketamine 50 mg/kg i.p.+xylazine 6 mg/kg i.p. The right jugular vein was exposed, a loose ligature was placed caudally, and the cranial end of vein was ligated. A small incision was made between the ligatures into which the catheter (polyethylene 50 tubing of internal diameter 0.58 mm and outer diameter 0.96 mm) was inserted. The catheter was secured in place by tying the loose ligature around the catheterized vessel. A small incision was made in the scapular region to serve as the exit site of the catheter. The catheter was subcutaneously tunneled and exteriorized through scapular incision. A stay suture was placed in the scapular area. Patency was tested, and catheter was filled with a locking solution (heparinized saline) and sealed with a stainless steel plug. The incision was then sutured with sterile suturing material. Anti-septic solution was applied to the sutured site and animal was placed back in the home cage.
(§3) To evaluate pharmacokinetic properties of intravenous delivery, male Sprague Dawley rats were administered 2.00 mg compound/kg animal weight through the tail vein. The concentration of the compound in the plasma of the animals was evaluated at 0.083, 0.25, 0.5, 1, 2, 4, 8, 12 and 24 hr by taking blood samples from the cannulated jugular vein. For the C5Bl/6J mice, blood samples were collected through a capillary, guided in retro-orbital plexus.
To evaluate pharmacokinetic properties of oral delivery, rats (male Sprague Dawley rats) or mice (C5Bl/6J) were administered 10 mg compound/kg animal weight by mouth. The concentration of compound in the plasma of the animals was evaluated at 0.25, 0.5, 1, 2, 4, 6, 8, 12 and 24 hr by taking blood samples from the cannulated jugular vein (rats) or through a capillary, guided in retro-orbital plexus (mice).

[3] = tested on: liver gene expression (ACACA, ACLY, FASN, LSS, PNPLA3); assay: Liver gene expression in mice after oral administration; assay type: in vivo; settings: 30 mpk, vs vehicle
Protocol: (§4) The pharmacodynamic properties of selected compounds were evaluated in mice. The animals were housed in cages with clean bedding, and maintained and monitored for good health in accordance with Test Facility SOPs and at the discretion of the laboratory animal veterinarian. Certified rodent diet was provided. Food and water was available ad libitum. Environmental controls for the animal room were set to maintain a temperature of 22° C. to 25° C., humidity of 40-70% RH, and a 12-hour light/[…]. Normal healthy animals certified by the attending veterinarian were selected and acclimatized for minimum three days prior to initiation of study. Animals were identified with body markings.
(§5) Aliquots of the compounds being evaluated were weighed and triturated with 0.5% methylcellulose (with the addition of 5% N-methyl pyrrolidone when required to remove clumping, as for Z-806) to an appropriate dose concentration. Vials were labeled with the information about study number, test item, concentration and date of preparation. A description of appearance of formulation was recorded (e.g., color, turbidity, etc.). The composition of formulation vehicle was recorded. An aliquot of each dose solution was taken before the dosing began and after dosing was finished, and stored at approximately −20° C. or below for subsequent analysis. The animals were dosed orally through oral gavage needle, and time of dosing was recorded.
(§6) Liver Collection at 6 h or 24 h: Immediately after blood withdrawal for pharmacokinetic evaluation (at 6 or at 24 h), liver tissue was collected without perfusion. Animals were euthanized using carbon dioxide gas in a CO2 chamber. The whole blood was drained by cutting the both side jugular vein and abdominal aorta. The liver was separated out. All the liver samples were divided in two parts. The first part (200 mg approx.) was snap frozen using liquid nitrogen as soon as possible. These samples were immediately transferred to −80° C. for storage. The remaining part was weighed and used for bioanalysis.
RNA Processing and Gene Expression Analysis: Liver Tissue RNA was harvested with the RNEasy kit and 20-100 ng used to synthesize cDNA with random primers following the manufacturer's protocol. Quantitative PCR was performed on 1 pg to 100 ng cDNA for the following genes: ACACA, ACLY, FASN, LSS, PNPLA3. Gene expression levels were determined using ΔΔCT method comparing treated to vehicle treated samples as a baseline, and fold change calculated. The average value for all 5 genes above was averaged and termed to Total Fold Change The results from this evaluation are presented in Table 8.

[4] = Plasma and liver compound levels in mice after oral administration; assay type: in vivo; settings: 30 mpk; for concentration at 6 h / concentration at 24 h: mouse, 30 mg/kg
Protocol: as §4, §5
After dosing, the mice were anesthetized using gaseous anesthesia. Blood samples were collected through a capillary, guided in retro-orbital plexus, at 6 h or at 24 h. Approximately 100 uL of blood was collected from each mouse, in pre-labeled tubes. The collected blood was stored on ice prior to centrifugation. Blood samples were then centrifuged within 1 hour of collection to separate plasma. Centrifugation was conducted at 2500×g for 15 minutes at 4° C. The plasma was separated and transferred to pre-labeled micro-centrifuge tubes and promptly frozen at −80±10° C. until bioanalysis.
as §6

[5] = In vivo pharmacokinetic properties in mice (IV and PO); design: species or system C57BL/6J mice; settings: mouse, in vivo; for Intravenous Delivery (IV) AUC0-last / Intravenous Delivery (IV) CL / Intravenous Delivery (IV) T1/2 / Intravenous Delivery (IV) Vd: 2 mg/kg; for Oral Administration (PO) AUC0-last / Oral Administration (PO) T1/2 / Oral Administration (PO) Tmax: 10 mg/kg
Protocol: as §1, §2, §3
[…] The concentration of compound in the plasma of the animals was evaluated at 0.25, 0.5, 1, 2, 4, 6, 8, 12 and 24 hr by taking blood samples from the cannulated jugular vein (rats) or through a capillary, guided in retro-orbital plexus (mice).

| SMILES | LogD [1] | Intravenous Delivery (IV) CL ([2]; IV, 2 mg/kg) | Intravenous Delivery (IV) T1/2 ([2]; IV, 2 mg/kg) | Intravenous Delivery (IV) Vd ([2]; IV, 2 mg/kg) | % F (Bioavailability of oral delivery) ([2]; PO 10 mg/kg vs IV 2 mg/kg) | Oral Administration (PO) AUC0-last ([2]; PO, 10 mg/kg) | Oral Administration (PO) T1/2 ([2]; PO, 10 mg/kg) | Oral Administration (PO) Tmax ([2]; PO, 10 mg/kg) | Total Gene FC Time (6 h) [3] | Total Gene FC Time (24 h) [3] | Liver ng/mg (6 h) [4] | Plasma ng/mL (6 h) [4] | Liver ng/mg 24 h [4] | Plasma ng/mL (24 h) [4] | % F (Bioavailability of oral delivery) [5] | Intravenous Delivery (IV) AUC0-last [5] | Intravenous Delivery (IV) CL [5] | Intravenous Delivery (IV) T1/2 [5] | Intravenous Delivery (IV) Vd [5] | Oral Administration (PO) AUC0-last [5] | further results |
| --- | --- | --- | --- | --- | --- | --- | --- | --- | --- | --- | --- | --- | --- | --- | --- | --- | --- | --- | --- | --- | --- |
| CC(C)(C)c1cc(-c2cccc(-c3ccc(C(=O)N4CCC(O)CC4)cc3Cl)c2)ccn1 [Compound Z-744] | 4.12 | 13.1 mL/min/kg | 1.91 h | 2.16 L/kg | 8.6% | 1058 | 2.35 h | 2 h | ++ (0.51-0.7509 = ++) | + (>0.751 = +) | >1000 ng/mg | 100 to 1000 ng/mL | >1000 ng/mg | 100 to 1000 ng/mL | – | – | – | – | – | – | – |
| CC(C)OC(=O)Nc1ccc(-c2cncc(-c3ccnc(C(C)(C)C)c3)c2)c(Cl)c1 [Compound Z-774] | 4.12 | 15.7 mL/min/kg | 5.92 h | 7.97 L/kg | 5.8% | 604 | 3.74 h | 0.333 h | ++ (0.51-0.7509 = ++) | +++ (0-0.509 = +++) | >1000 ng/mg | 100 to 1000 ng/mL | >1000 ng/mg | 100 to 1000 ng/mL | 16% | 1780 ng·h/mL | 18.5 mL/min/kg | 5.31 h | 8.51 L/kg | 1380 ng·h/mL | Oral Administration (PO) T1/2 [5]: 6.79 h; Oral Administration (PO) Tmax [5]: 0.5 h |
| CC1(O)CCN(C(=O)c2ccc(-c3cncc(-c4ccnc(C(C)(C)C)c4)c3)c(Cl)c2)CC1 [Compound Z-780] | 3.76 | 16.7 mL/min/kg | 1.14 h | 1.64 L/kg | 29% | 2989 | 0.92 h | 0.75 h | + (>0.751 = +) | ++ (0.51-0.7509 = ++) | >1000 ng/mg | 100 to 1000 ng/mL | >100 ng/mg | <100 ng/mL | 33% | 913 ng·h/mL | 36.3 mL/min/kg | 2.02 h | 6.33 L/kg | 1510 ng·h/mL | Oral Administration (PO) T1/2 [5]: 1.24 h; Oral Administration (PO) Tmax [5]: 0.25 h |
| CC(C)(O)c1cc(-c2cncc(-c3ccc(C(=O)N4CCC(O)CC4)cc3Cl)c2)ccn1 [Compound Z-796, (3-chloro-4-(2′-(2-hydroxypropan-2-yl)-[3,4′-bipyridin]-5-yl)phenyl)(4-hydroxypiperidin-1-yl)methanone] | – | – | – | – | – | – | – | – | + (>0.751 = +) | + (>0.751 = +) | – | – | – | – | – | – | – | – | – | – | LogD ([1]; 1-octanol/aqueous buffer, read-out: LogD): 2.08; AUC(0-t) ([2]; male, Sprague Dawley, rat, plasma, 10 mg/kg, heading: Oral Administration AUC0-last, PO, 10 mg/kg): 7140 ng·h/mL; AUC(0-t) ([2]; male, Sprague Dawley, rat, plasma, IV, 2 mg/kg, read-out: Intravenous Delivery (IV) AUC0-last): 3800 ng·h/mL; clearance ([2]; male, Sprague Dawley, rat, plasma, IV, 2 mg/kg, read-out: Intravenous Delivery (IV) CL): 8.78 mL/min/kg; half-life ([2]; male, Sprague Dawley, rat, plasma, IV, 2 mg/kg, read-out: Intravenous Delivery (IV) T1/2 (converted)): 3.08 h; Vd ([2]; male, Sprague Dawley, rat, plasma, IV, 2 mg/kg, read-out: Intravenous Delivery (IV) Vd): 2.37 L/kg; bioavailability ([2]; male, Sprague Dawley, rat, plasma, PO 10 mg/kg vs IV 2 mg/kg, read-out: % F (Bioavailability of oral delivery)): 38%; half-life ([2]; male, Sprague Dawley, rat, plasma, PO, 10 mg/kg, read-out: Oral Administration (PO) T1/2 (converted)): 3.22 h; Tmax ([2]; male, Sprague Dawley, rat, plasma, PO, 10 mg/kg, read-out: Oral Administration (PO) Tmax): 0.667 h; concentration at 6 h ([4]; liver, read-out: Liver ng/mg (6 h)): > 1e+06 ng/g; concentration at 24 h ([4]; liver, read-out: Liver ng/mg 24 h): < 100000 ng/g; concentration at 6 h ([4]; plasma, read-out: Plasma ng/mL (6 h)): 100 to 1000 ng/mL; concentration at 24 h ([4]; plasma, read-out: Plasma ng/mL (24 h)): < 100 ng/mL |
| Cc1cc(C(=O)N2CCC(O)CC2)ccc1-c1cncc(-c2ccnc(C(C)(C)C)c2)c1 [Compound Z-817] | 3.36 | 5.24 mL/min/kg | 3.11 h | 1.41 L/kg | 13% | 3992 | 2.56 h | 0.33 h | + (>0.751 = +) | + (>0.751 = +) | 100 to 1000 ng/mg | <100 ng/mL | <100 ng/mg | <100 ng/mL | – | – | – | – | – | – | – |
